Laboratory results from patent US10314308B2, “Microbiocidal benzoxaboroles” (SYNGENTA PARTICIPATIONS AG, priority 2015, dated 2019).

Columns and labels:
[1] = system: Pythium Ultimum; experiment: Pythium ultimum / liquid culture (seedling damping off); type: cell-based; conditions: Globisporangium ultimum, potato dextrose broth, 24° C., 2-3 days after application, read-out: disease control (inhibition of growth, photometrically)
[2] = system: Plasmopara Viticola; experiment: whole plant or invertebrate; type: in vivo; conditions: foliar, read-out: disease control
[3] = system: Glomerella Lagenarium(Colletotrichum Ladenarium); experiment: Glomerella lagenarium (Colletotrichum lagenarium) / liquid culture (anthracnose); type: cell-based; conditions: PDB potato dextrose broth, 24° C., 3-4 days after application, read-out: disease control (inhibition of growth, photometrically)
Summary of the method: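 Compound dissolved in DMSO was combined with potato dextrose broth carrying conidia taken directly from cryogenic storage. Photometric growth inhibition readings were taken after 3–4 days of incubation at 24 °C.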

[4] = system: Phytophthora Infestans; experiment: whole plant or invertebrate; type: in vivo; conditions: in Solanum lycopersicum, foliar, read-out: disease control
[5] = system: Mycosphaerella Arachidis(Cercospora Arachidicola); experiment: Mycosphaerella arachidis (Cercospora arachidicola) / liquid culture (early leaf spot); type: cell-based; conditions: PDB potato dextrose broth, 24° C., 4-5 days after application, read-out: disease control (inhibition of growth, photometrically)
Summary of the method: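 Growth inhibition was read photometrically 4-5 days post-application, following incubation at 24 °C. Test compounds in DMSO were combined with fungal spores from cryogenic storage suspended in potato dextrose broth.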

[6] = system: Sclerotinia Sclerotiorum; experiment: Sclerotinia sclerotiorum / liquid culture (cottony rot); type: cell-based; conditions: PDB potato dextrose broth, 24° C., 3-4 days after application, read-out: disease control (inhibition of growth, visually)
Summary of the method: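 Growth inhibition was read by eye 3-4 days post-application at 24° C. Compounds (DMSO solution) were combined with potato dextrose broth seeded with mycelia fragments from a newly grown liquid culture.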

[7] = system: Gaeumannomyces Graminis; experiment: Gaeumannomyces graminis / liquid culture (take-all of cereals); type: cell-based; conditions: PDB potato dextrose broth, 24° C., 4-5 days after application, read-out: disease control (inhibition of growth, photometrically)
Summary of the method: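 Liquid-culture growth assay: compound delivered as DMSO solution, then fungal inoculum in potato dextrose broth added. Photometric read of growth inhibition after 4-5 days at 24° C.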

[8] = system: Mycosphaerella Graminicola(Septoria Tritici); experiment: Mycosphaerella graminicola (Septoria tritici) / liquid culture (Septoria blotch); type: cell-based; conditions: Zymoseptoria tritici, PDB potato dextrose broth, 24° C., 4-5 days after application, read-out: disease control (inhibition of growth, photometrically)
Summary of the method: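 Growth inhibition measured by photometry 4-5 days post-application, at 24 °C, in liquid culture of spores taken straight from cryogenic storage into potato dextrose broth, with test compound supplied in DMSO.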

[9] = system: Monographella Nivalis(Microdochium Nivale); experiment: Monographella nivalis (Microdochium nivale) / liquid culture (foot rot cereals); type: cell-based; conditions: PDB potato dextrose broth, 24° C., 4-5 days after application, read-out: disease control (inhibition of growth, photometrically)
Summary of the method: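 Growth inhibition measured photometrically after 4-5 days at 24° C. Test compound in DMSO was combined with nutrient broth (PDB) carrying conidia taken directly from cryogenic storage.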

[10] = system: Phaeosphaeria Nodorum (Septoria Nodorum); experiment: Phaeosphaeria nodorum (Septoria nodorum) / wheat / leaf disc preventative (glume blotch); type: in vivo; conditions: Parastagonospora nodorum, foliar, wheat leaf segments cv Kanzler, inoculated 2 days after application, assessed 5-7 days after application, read-out: disease control
Method: 5 Phaeosphaeria Nodorum (Septoria Nodorum)/Wheat/Leaf Disc Preventative (Glume Blotch) Wheat leaf segments cv Kanzler were placed on agar in a 24-well plate and sprayed with formulated test compound diluted in water. The leaf disks were inoculated with a spore suspension of the fungus 2 days after application. The inoculated test leaf disks were incubated at 20° C. and 75% relative humidity under a light regime of 12/12 h (light/dark) in a climate cabinet and the activity of a compound was assessed as percent disease control compared to untreated when an appropriate level of disease damage appears in untreated check leaf disks (5-7 days after application).

[11] = system: Fusarium Culmorum; experiment: microbe, parasite or virus in culture; type: cell-based; conditions: read-out: disease control (inhibition of growth, photometrically)
[12] = system: Thanatephorus Cucumeris(Rhizoctonia Solani); experiment: Thanatephorus cucumeris (Rhizoctonia solani) / liquid culture (foot rot, damping-off); type: cell-based; conditions: PDB potato dextrose broth, 24° C., 3-4 days after application, read-out: disease control (inhibition of growth, photometrically)
Method: 16 Thanatephorus Cucumeris(Rhizoctonia Solani)/Liquid Culture (Foot Rot, Damping-Off) Mycelia fragments of a newly grown liquid culture of the fungus were directly mixed into nutrient broth (PDB potato dextrose broth). After placing a DMSO solution of the test compounds into a 96-well microtiter plate at an application rate of 200 ppm, the nutrient broth containing the fungal material was added. The test plates were incubated at 24° C. and the inhibition of growth was determined photometrically 3-4 days after application.

[13] = system: Puccinia Recondita f. sp. Tritici; experiment: Puccinia recondita f. sp. tritici / wheat / leaf disc preventative (brown rust); type: in vivo; conditions: foliar, wheat leaf segments cv Kanzler, inoculated 1 day after application, assessed 7-9 days after application, read-out: disease control
Method: 3 Puccinia Recondita f. sp. Tritici/Wheat/Leaf Disc Preventative (Brown Rust) Wheat leaf segments cultivated variety (cv) Kanzler were placed on agar in 24-well plates and sprayed with formulated test compound diluted in water. The leaf disks were inoculated with a spore suspension of the fungus 1 day after application. The inoculated leaf segments were incubated at 19° C. and 75% relative humidity under a light regime of 12/12 h (light/dark) in a climate cabinet and the activity of a compound was assessed as percent disease control compared to untreated when an appropriate level of disease damage appears in untreated check leaf segments (7-9 days after application).

[14] = system: Botryotinia Fuckeliana(Botrytis Cinerea); experiment: Botryotinia fuckeliana (Botrytis cinerea) / liquid culture (gray mould); type: cell-based; conditions: Vogels broth, 24° C., 3-4 days after application, read-out: disease control (inhibition of growth, photometrically)
Method: 9 Botryotinia Fuckeliana(Botrytis Cinerea)/Liquid Culture (Gray Mould) Conidia of the fungus from cryogenic storage were directly mixed into nutrient broth (Vogels broth). After placing a DMSO solution of test compound into a 96-well microtiter plate, the nutrient broth containing the fungal spores was added. The test plates were incubated at 24° C. and the inhibition of growth was determined photometrically 3-4 days after application.

N#Cc1cscc1-c1cc2c(cc1Cl)COB2O [Compound 42]
≥ 80%: inhibition at 20 ppm [1] | pest or weed control at 200 ppm [2] | inhibition at 20 ppm [3] | pest or weed control at 200 ppm [4] | inhibition at 20 ppm [5] | inhibition at 20 ppm [6] | inhibition at 20 ppm [7] | inhibition at 20 ppm [8] | inhibition at 20 ppm [9] | pest or weed control at 200 ppm [10] | inhibition at 20 ppm [11]

COc1c(-c2nnco2)ccc2c1B(O)OC2 [Compound 93]
176 to 178 °C: melting point
≥ 80%: inhibition at 20 ppm [1] | inhibition at 20 ppm [3] | pest or weed control at 200 ppm [4] | inhibition at 20 ppm [5] | inhibition at 20 ppm [7]

Cc1csc(-c2cc3c(cc2Cl)COB3O)n1 [Compound 15]
≥ 80%: inhibition at 20 ppm [1] | pest or weed control at 200 ppm [2] | inhibition at 20 ppm [3] | inhibition at 20 ppm [12] | pest or weed control at 200 ppm [4] | inhibition at 20 ppm [5] | inhibition at 20 ppm [6] | inhibition at 20 ppm [7] | inhibition at 20 ppm [8] | inhibition at 20 ppm [9] | inhibition at 20 ppm [11]

CC(=O)c1ccc(-c2cc3c(cc2Cl)COB3O)o1 [Compound 39]
≥ 80%: inhibition at 20 ppm [1] | pest or weed control at 200 ppm [2] | inhibition at 20 ppm [3] | inhibition at 20 ppm [12] | pest or weed control at 200 ppm [4] | inhibition at 20 ppm [5] | inhibition at 20 ppm [7] | inhibition at 20 ppm [9] | inhibition at 20 ppm [11]

OB1OCc2cc(Cl)c(-c3ccsc3Cl)cc21 [Compound 88]
≥ 80%: inhibition at 20 ppm [1] | pest or weed control at 200 ppm [13] | pest or weed control at 200 ppm [2] | inhibition at 20 ppm [3] | inhibition at 20 ppm [12] | inhibition at 20 ppm [5] | inhibition at 20 ppm [6] | inhibition at 20 ppm [7] | inhibition at 20 ppm [8] | inhibition at 20 ppm [9] | pest or weed control at 200 ppm [10] | inhibition at 20 ppm [11]

Cn1cccc1-c1cc2c(cc1Cl)COB2O [Compound 4]
195 to 202 °C: melting point
≥ 80%: inhibition at 20 ppm [1] | pest or weed control at 200 ppm [13] | pest or weed control at 200 ppm [2] | inhibition at 20 ppm [3] | inhibition at 20 ppm [5] | inhibition at 20 ppm [7] | inhibition at 20 ppm [8] | inhibition at 20 ppm [9] | pest or weed control at 200 ppm [10] | inhibition at 20 ppm [11]

Cc1ncsc1-c1cc2c(cc1Cl)COB2O [Compound 16]
≥ 80%: inhibition at 20 ppm [1] | pest or weed control at 200 ppm [2] | inhibition at 20 ppm [3] | pest or weed control at 200 ppm [4] | inhibition at 20 ppm [5] | inhibition at 20 ppm [6] | inhibition at 20 ppm [7] | inhibition at 20 ppm [8] | inhibition at 20 ppm [9] | inhibition at 20 ppm [14] | inhibition at 20 ppm [11]

O/N=C/c1ccc(-c2cc3c(cc2F)COB3O)o1 [Compound 27]
≥ 80%: inhibition at 20 ppm [1] | pest or weed control at 200 ppm [2] | inhibition at 20 ppm [3] | pest or weed control at 200 ppm [4] | inhibition at 20 ppm [5] | inhibition at 20 ppm [9]
200 to 220 °C: melting point

OB1OCc2cc(F)c(-c3nnco3)cc21 [Compound 95]
≥ 80%: inhibition at 20 ppm [1] | inhibition at 20 ppm [3] | pest or weed control at 200 ppm [4] | inhibition at 20 ppm [5] | inhibition at 20 ppm [6] | inhibition at 20 ppm [7]
237 to 239 °C: melting point

OB1OCc2cc(F)c(-c3ccc(Cl)nc3)cc21 [Compound 13, 2-chloro-5-(5-fluoro-1-hydroxy-3H-2,1-benzoxaborol-6-yl)pyridine]
213 to 215 °C: melting point
≥ 80%: inhibition at 20 ppm [1] | pest or weed control at 200 ppm [2] | pest or weed control at 200 ppm [4] | inhibition at 20 ppm [7] | inhibition at 20 ppm [9]

OB1OCc2cc(Cl)c(-c3cccs3)cc21 [Compound 3]
125 to 135 °C: melting point
≥ 80%: inhibition at 20 ppm [1] | pest or weed control at 200 ppm [13] | pest or weed control at 200 ppm [2] | inhibition at 20 ppm [3] | inhibition at 20 ppm [12] | inhibition at 20 ppm [5] | inhibition at 20 ppm [6] | inhibition at 20 ppm [7] | inhibition at 20 ppm [8] | inhibition at 20 ppm [9] | inhibition at 20 ppm [14] | pest or weed control at 200 ppm [10] | inhibition at 20 ppm [11]

OB1OCc2cc(F)c(-c3cccs3)cc21 [Compound 6]
≥ 80%: inhibition at 20 ppm [1] | pest or weed control at 200 ppm [13] | pest or weed control at 200 ppm [2] | inhibition at 20 ppm [3] | inhibition at 20 ppm [12] | inhibition at 20 ppm [5] | inhibition at 20 ppm [6] | inhibition at 20 ppm [7] | inhibition at 20 ppm [8] | inhibition at 20 ppm [9] | inhibition at 20 ppm [14] | inhibition at 20 ppm [11]
134 to 140 °C: melting point

Cc1noc(-c2cc3c(cc2F)COB3O)n1 [Compound 30, 5-(5-fluoro-1-hydroxy-3H-2,1-benzoxaborol-6-yl)-3-methyl-1,2,4-oxadiazole]
≥ 80%: inhibition at 20 ppm [1] | inhibition at 20 ppm [3] | pest or weed control at 200 ppm [4] | inhibition at 20 ppm [5] | inhibition at 20 ppm [6] | inhibition at 20 ppm [7] | inhibition at 20 ppm [8] | inhibition at 20 ppm [9] | inhibition at 20 ppm [14]
200 to 202 °C: melting point

OB1OCc2cc(Cl)c(-c3cncc(C(F)(F)F)c3)cc21 [Compound 91]
≥ 80%: inhibition at 20 ppm [1] | pest or weed control at 200 ppm [13] | pest or weed control at 200 ppm [2] | inhibition at 20 ppm [3] | inhibition at 20 ppm [12] | inhibition at 20 ppm [5] | inhibition at 20 ppm [6] | inhibition at 20 ppm [7] | inhibition at 20 ppm [8] | inhibition at 20 ppm [9] | inhibition at 20 ppm [14] | pest or weed control at 200 ppm [10] | inhibition at 20 ppm [11]

OB1OCc2cc(F)c(-c3ccsc3Cl)cc21 [Compound 79]
≥ 80%: inhibition at 20 ppm [1] | pest or weed control at 200 ppm [13] | pest or weed control at 200 ppm [2] | inhibition at 20 ppm [3] | inhibition at 20 ppm [12] | inhibition at 20 ppm [5] | inhibition at 20 ppm [6] | inhibition at 20 ppm [7] | inhibition at 20 ppm [8] | inhibition at 20 ppm [9] | pest or weed control at 200 ppm [10]

CC1N=C(c2cc3c(cc2Cl)COB3O)S/C1=N/O (stereo not drawn) [Compound 17]
≥ 80%: inhibition at 20 ppm [1] | inhibition at 20 ppm [3] | pest or weed control at 200 ppm [4] | inhibition at 20 ppm [5] | inhibition at 20 ppm [6] | inhibition at 20 ppm [7] | inhibition at 20 ppm [8] | inhibition at 20 ppm [9] | inhibition at 20 ppm [14] | inhibition at 20 ppm [11]
